Measured values from patent US20050070510A1, “Substituted tetracycline compounds as synergistic antifungal agents” (Paratek Pharmaceuticals, Inc., priority 2001, published 2005).

Each compound was assayed on COS-1 cells (assay: In vitro mammalian cytotoxicity assay (Resazurin)).

SMILES | In Vitro Cytotoxicity
CN(C)[C@@H]1C(O)=C(C(N)=O)C(=O)[C@@]2(C#N)C(O)=C3C(=O)c4c(O)c(CN)cc(-c5ccccc5)c4C[C@@]3(N)C[C@@]12N [RO] | * (toxicities greater than >25 μg/ml are represented by *)
CN(C)[C@@H]1C(O)=C(C(N)=O)C(=O)[C@@]2(C#N)C(O)=C3C(=O)c4c(O)ccc(-c5ccc(F)c(F)c5)c4C[C@@]3(N)C[C@@]12N [QB] | ** (toxicities less than 25 μg/mL are represented by **)
C=CCNc1ccc2c(c1O)C(=O)C1=C(O)[C@]3(C#N)C(=O)C(C(N)=O)=C(O)[C@@H](N(C)C)[C@]3(N)[C@@H](O)[C@]1(N)[C@H]2N [CI] | ** (toxicities less than 25 μg/mL are represented by **)
CN(C)c1cc(NCc2ccccc2)c(O)c2c1C[C@@]1(N)C[C@@]3(N)[C@H](N(C)C)C(O)=C(C(N)=O)C(=O)[C@@]3(C#N)C(O)=C1C2=O [LO] | ** (toxicities less than 25 μg/mL are represented by **)
CN(C)[C@@H]1C(O)=C(C(N)=O)C(=O)[C@@]2(C#N)C(O)=C3C(=O)c4c(O)c(C(C)(C)C)cc(CN)c4C[C@@]3(N)C[C@@]12N [RC] | * (toxicities greater than >25 μg/ml are represented by *)
CN(C)CC(=O)NCc1ccc(-c2ccc(O)c3c2C[C@@]2(N)C[C@@]4(N)[C@H](N(C)C)C(O)=C(C(N)=O)C(=O)[C@@]4(C#N)C(O)=C2C3=O)cc1 [NY] | ** (toxicities less than 25 μg/mL are represented by **)
CN(C)c1cc(CN(Cc2ccn[nH]2)Cc2ccn[nH]2)c(O)c2c1C[C@@]1(N)C[C@@]3(N)[C@H](N(C)C)C(O)=C(C(N)=O)C(=O)[C@@]3(C#N)C(O)=C1C2=O [TA] | * (toxicities greater than >25 μg/ml are represented by *)
Cc1ncsc1/C=C/c1ccc(O)c2c1C[C@@]1(N)C[C@@]3(N)[C@H](N(C)C)C(O)=C(C(N)=O)C(=O)[C@@]3(C#N)C(O)=C1C2=O [HE] | ** (toxicities less than 25 μg/mL are represented by **)
CCSC(=O)/C=C/c1ccc2c(c1O)C(=O)C1=C(O)[C@]3(C#N)C(=O)C(C(N)=O)=C(O)[C@@H](N(C)C)[C@]3(N)[C@@H](O)[C@]1(N)[C@H]2O [AT] | ** (toxicities less than 25 μg/mL are represented by **)
CN(C)c1cc(NC(=O)Nc2cccc3ccccc23)c(O)c2c1C[C@@]1(N)C[C@@]3(N)[C@H](N(C)C)C(O)=C(C(N)=O)C(=O)[C@@]3(C#N)C(O)=C1C2=O [CF] | ** (toxicities less than 25 μg/mL are represented by **)
CN(C)[C@@H]1C(O)=C(C(N)=O)C(=O)[C@@]2(C#N)C(O)=C3C(=O)c4c(O)ccc(-c5ccc(CNCc6ccccc6)o5)c4C[C@@]3(N)C[C@@]12N [SS] | ** (toxicities less than 25 μg/mL are represented by **)
CN(C)[C@@H]1C(O)=C(C(N)=O)C(=O)[C@@]2(C#N)C(O)=C3C(=O)c4c(ccc(/C=C/C(=O)O)c4O)[C@H](O)[C@@]3(N)[C@H](O)[C@@]12N [AV] | ** (toxicities less than 25 μg/mL are represented by **)
CN(C)[C@@H]1C(O)=C(C(N)=O)C(=O)[C@@]2(C#N)C(O)=C3C(=O)c4c(O)cccc4[C@H](OSC(F)(F)C(F)(F)F)[C@@]3(N)[C@H](O)[C@@]12N [AS] | ** (toxicities less than 25 μg/mL are represented by **)
CN(C)[C@@H]1C(O)=C(C(N)=O)C(=O)[C@@]2(C#N)C(O)=C3C(=O)c4c(O)ccc(-c5ccccn5)c4[C@H](N)[C@@]3(N)[C@H](O)[C@@]12N [CN] | * (toxicities greater than >25 μg/ml are represented by *)
CCc1ccc(O)c2c1C[C@@]1(N)C[C@@]3(N)[C@H](N(C)C)C(O)=C(C(N)=O)C(=O)[C@@]3(C#N)C(O)=C1C2=O [GE] | ** (toxicities less than 25 μg/mL are represented by **)
CN(C)c1cc(CNC(=O)Nc2ccc3c(c2)OCO3)c(O)c2c1C[C@@]1(N)C[C@@]3(N)[C@H](N(C)C)C(O)=C(C(N)=O)C(=O)[C@@]3(C#N)C(O)=C1C2=O [MZ] | * (toxicities greater than >25 μg/ml are represented by *)
CN(C)c1cc(CNCC(C)(C)C)c(O)c2c1C[C@@]1(N)C[C@@]3(N)[C@H](N(C)C)C(O)=C(C(N)=O)C(=O)[C@@]3(C#N)C(O)=C1C2=O [TK] | * (toxicities greater than >25 μg/ml are represented by *)
CN(C)[C@@H]1C(O)=C(C(N)=O)C(=O)[C@@]2(C#N)C(O)=C3C(=O)c4c(O)c(-c5ccc6c(c5)OCO6)cc(-c5ccc6c(c5)OCO6)c4C[C@@]3(N)C[C@@]12N [LP] | ** (toxicities less than 25 μg/mL are represented by **)
CN(C)c1cc(NC(=O)Nc2cc(C(F)(F)F)cc(C(F)(F)F)c2)c(O)c2c1C[C@@]1(N)C[C@@]3(N)[C@H](N(C)C)C(O)=C(C(N)=O)C(=O)[C@@]3(C#N)C(O)=C1C2=O [IL] | ** (toxicities less than 25 μg/mL are represented by **)
C=CCCNC(=O)NCc1cc(N(C)C)c2c(c1O)C(=O)C1=C(O)[C@]3(C#N)C(=O)C(C(N)=O)=C(O)[C@@H](N(C)C)[C@]3(N)C[C@]1(N)C2 [MD] | * (toxicities greater than >25 μg/ml are represented by *)
CC(C)NCc1ccc(-c2ccc(O)c3c2C[C@@]2(N)C[C@@]4(N)[C@H](N(C)C)C(O)=C(C(N)=O)C(=O)[C@@]4(C#N)C(O)=C2C3=O)cc1 [OT] | * (toxicities greater than >25 μg/ml are represented by *)

SMILES | In Vitro Cytotoxicity
CCCc1cc(CN)c(O)c2c1C[C@@]1(N)C[C@@]3(N)[C@H](N(C)C)C(O)=C(C(N)=O)C(=O)[C@@]3(C#N)C(O)=C1C2=O [JS] | * (toxicities greater than >25 μg/ml are represented by *)
CCCCCN(Cc1cccc(-c2ccc(O)c3c2C[C@@]2(N)C[C@@]4(N)[C@H](N(C)C)C(O)=C(C(N)=O)C(=O)[C@@]4(C#N)C(O)=C2C3=O)c1)P(=O)(OCC)OCC [KO] | * (toxicities greater than >25 μg/ml are represented by *)
CN(C)[C@@H]1C(O)=C(C(N)=O)C(=O)[C@@]2(C#N)C(O)=C3C(=O)c4c(O)ccc(-c5ccc(NC(=O)CN)cc5)c4C[C@@]3(N)C[C@@]12N [VA] | ** (toxicities less than 25 μg/mL are represented by **)
CN(C)CC(=O)O[C@H]1[C@@]2(N)C(=C(O)[C@]3(C#N)C(=O)C(C(N)=O)=C(O)[C@@H](N(C)C)[C@]13N)C(=O)c1c(O)cccc1[C@@H]2N [BZ] | ** (toxicities less than 25 μg/mL are represented by **)
COc1ccc(C#Cc2cc(N(C)C)c3c(c2O)C(=O)C2=C(O)[C@]4(C#N)C(=O)C(C(N)=O)=C(O)[C@@H](N(C)C)[C@]4(N)C[C@]2(N)C3)cc1 [FE] | ** (toxicities less than 25 μg/mL are represented by **)
CN(C)[C@@H]1C(O)=C(C(N)=O)C(=O)[C@@]2(C#N)C(O)=C3C(=O)c4c(ccc(N(Cc5ccccc5)Cc5ccccc5)c4O)[C@H](N)[C@@]3(N)[C@H](O)[C@@]12N [BP] | ** (toxicities less than 25 μg/mL are represented by **)
CN(C)[C@@H]1C(O)=C(C(N)=O)C(=O)[C@@]2(C#N)C(O)=C3C(=O)c4c(O)c(-c5ccccc5)cc(-c5ccccc5)c4[C@H](N)[C@@]3(N)[C@H](O)[C@@]12N [PX] | ** (toxicities less than 25 μg/mL are represented by **)
COc1ccc2c(c1)cc1c3c(c(O)ccc32)C(=O)C2=C(O)[C@]3(C#N)C(=O)C(C(N)=O)=C(O)[C@@H](N(C)C)[C@]3(N)C[C@@]21N [OL] | ** (toxicities less than 25 μg/mL are represented by **)
CC(C)CNCc1ccc2c(c1O)C(=O)C1=C(O)[C@]3(C#N)C(=O)C(C(N)=O)=C(O)[C@@H](N(C)C)[C@]3(N)[C@@H](O)[C@]1(N)[C@H]2N [RQ] | * (toxicities greater than >25 μg/ml are represented by *)
Cc1noc(C)c1S(=O)(=O)NCc1cc(N(C)C)c2c(c1O)C(=O)C1=C(O)[C@]3(C#N)C(=O)C(C(N)=O)=C(O)[C@@H](N(C)C)[C@]3(N)C[C@]1(N)C2 [TJ] | * (toxicities greater than >25 μg/ml are represented by *)
CN(C)[C@@H]1C(O)=C(C(N)=O)C(=O)[C@@]2(C#N)C(O)=C3C(=O)c4c(O)c(CN5C(=O)c6ccccc6C5=O)cc(-c5cccc([N+](=O)O)c5)c4C[C@@]3(N)C[C@@]12N [JQ] | ** (toxicities less than 25 μg/mL are represented by **)
CN(C)[C@@H]1C(O)=C(C(N)=O)C(=O)[C@@]2(C#N)C(O)=C3C(=O)c4c(O)ccc(/C=C/c5ccc(C(F)(F)F)cc5)c4C[C@@]3(N)C[C@@]12N [HK] | ** (toxicities less than 25 μg/mL are represented by **)
Cc1ccc(S(=O)(=O)NC(=O)C#Cc2cc(N(C)C)c3c(c2O)C(=O)C2=C(O)[C@]4(C#N)C(=O)C(C(N)=O)=C(O)[C@@H](N(C)C)[C@]4(N)C[C@]2(N)C3)cc1 [JJ] | * (toxicities greater than >25 μg/ml are represented by *)
CN(C)c1cc(CNCCc2ccccc2)c(O)c2c1C[C@@]1(N)C[C@@]3(N)[C@H](N(C)C)C(O)=C(C(N)=O)C(=O)[C@@]3(C#N)C(O)=C1C2=O [LX] | * (toxicities greater than >25 μg/ml are represented by *)
CCc1cc(CN)c(O)c2c1C[C@@]1(N)C[C@@]3(N)[C@H](N(C)C)C(O)=C(C(N)=O)C(=O)[C@@]3(C#N)C(O)=C1C2=O [IZ] | * (toxicities greater than >25 μg/ml are represented by *)
CN(C)c1cc(-c2ccc(C(N)=O)cc2)c(O)c2c1C[C@@]1(N)C[C@@]3(N)[C@H](N(C)C)C(O)=C(C(N)=O)C(=O)[C@@]3(C#N)C(O)=C1C2=O [ET] | ** (toxicities less than 25 μg/mL are represented by **)
CN(C)c1cc(CNCc2cccn2C)c(O)c2c1C[C@@]1(N)C[C@@]3(N)[C@H](N(C)C)C(O)=C(C(N)=O)C(=O)[C@@]3(C#N)C(O)=C1C2=O [SK] | * (toxicities greater than >25 μg/ml are represented by *)
CN(C)[C@@H]1C(O)=C(C(N)=O)C(=O)[C@@]2(C#N)C(O)=C3C(=O)c4c(O)cccc4/C(=C\c4cc(F)cc(F)c4)[C@@]3(N)[C@H](O)[C@@]12N [DR] | * (toxicities greater than >25 μg/ml are represented by *)
CN(C)[C@@H]1C(O)=C(C(N)=O)C(=O)[C@@]2(C#N)C(O)=C3C(=O)c4c(O)ccc(C#Cc5c(F)c(F)c(F)c(F)c5F)c4C[C@@]3(N)C[C@@]12N [FK] | ** (toxicities less than 25 μg/mL are represented by **)
CN(C)[C@@H]1C(O)=C(C(N)=O)C(=O)[C@@]2(C#N)C(O)=C3C(=O)c4c(O)cccc4[C@H](N)[C@@]3(N)[C@H](OC(=O)CN)[C@@]12N [BV] | ** (toxicities less than 25 μg/mL are represented by **)
